Test results as given in US4988691A (priority 1989, dated 1991).
pIC50: −log10 of the molar value. “Also recorded” adds a separate entry of the source. Counter-ions that a name gives are not always drawn. Like-named read-outs stand apart in the source and are kept apart here.

Experiments:
[1] = tested on: Ca^++ receptors; assay: displacement of 3H-nitrendipine from Ca++ receptors, rat brain membranes; assay type: binding; conditions: 3H-nitrendipine 1nM
[2] = target: T1, contracturing effect of histamine (Cavia porcellus, UniProt P31389); assay: antihistaminic activity in vitro (contracturing effect of histamine on isolated guinea pig small intestine); design: species or system Guinea pigs
T1 construct: Segments measuring 5-6 cm were drawn form the end portion of the small intestine; from tissue; host or cells: guinea pig terminal small intestine (ileum)

[3] = tested on: norepinephrine induced arrythmias in rat; assay: inhibition of norepinephrine induced arrythmias in rat; assay type: in vivo; conditions: for ED50: Rattus norvegicus, 50% reduction of arrythmia duration
Description: Male rats, weighing 300-400 g, narcotized with urethan (1.5 g/kg, i.p.) were used; one little probe was implanted into the jugular vein and another into the femoral vein for administering norepinephrine and the test substance respectively. The EGC was recorded in II derivation and from it the instantaneous heart rate was derived. Furthermore, the EGC wave was monitored on oscilloscope and made audible by mean of a loudspeaker. Norepinephrine (75 μg/kg/min. for 15 seconds, 7-8 μg/animal) was administered by means of a Braun perfusion apparatus. The dose of administered norepinephrine was established in preliminary tests so as to cause an arrythmia of a duration equal to or higher than 10 seconds. The arising time of the heart arrythmia starting from the beginning of the norepinephrine perfusion and the duration of the arrythmic phase were recorded. Tests of arrythmia duration for each animal were performed; thereafter the compounds of formula I and the compound R were administered intravenously or per os 2 minutes or 1 hour respectively before a fourth norepinephrine infusion. The activity of test compounds was evaluated as increasing percentage in the time of the arising of arrythmia as well as of the inhibition (duration of the arrythmic phase). For each dose at least 5 tests were performed. In table 9 we report as an example the ED50 values defined as 50% reduction of the duration of arrythmias after the administration of both compound No. 8 and compound R either intravenously (i.v.) or per os (p.o.).

[4] = tested on: receptors for benzodiazepins; assay: displacement of 3H-flunitrazepam from benzodiazepine receptors, rat cerebral cortex membranes; assay type: binding; conditions: 3H-flunitrazepam 1nM
[5] = target: 5-HT2 receptors (Rattus norvegicus, UniProt P14842); assay: affinity for 5-HT2 receptors (3H-spiroperidol binding), rat cortex membranes; conditions: rat frontal cortex membranes
[6] = target: T2, 5-HT3 receptors (Oryctolagus cuniculus, UniProt A0A5F9C9J3); assay: anti-5-HT3 activity in vitro on the isolated vagus nerve of rabbit
T2 construct: from tissue; host or cells: isolated rabbit vagus nerve
T2 sequence (A0A5F9C9J3 1-494): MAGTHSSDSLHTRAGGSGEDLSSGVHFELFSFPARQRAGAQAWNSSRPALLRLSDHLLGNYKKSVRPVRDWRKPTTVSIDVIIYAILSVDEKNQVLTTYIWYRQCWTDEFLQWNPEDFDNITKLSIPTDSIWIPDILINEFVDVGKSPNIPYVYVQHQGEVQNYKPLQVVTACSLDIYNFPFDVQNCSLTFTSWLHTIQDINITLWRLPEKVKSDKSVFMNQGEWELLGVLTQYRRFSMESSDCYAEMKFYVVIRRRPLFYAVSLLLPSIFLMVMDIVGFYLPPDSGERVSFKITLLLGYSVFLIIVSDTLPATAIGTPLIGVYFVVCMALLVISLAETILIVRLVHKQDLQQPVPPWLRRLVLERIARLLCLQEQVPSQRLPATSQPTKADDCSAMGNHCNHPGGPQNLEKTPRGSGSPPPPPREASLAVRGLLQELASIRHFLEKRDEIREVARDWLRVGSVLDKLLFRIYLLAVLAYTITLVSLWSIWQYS
Description: (b) Evaluation of the anti-5-HT3 activity in vitro on the vagus nerve of rabbit. Male albino New Zeland rabbits weighing about 3 kg were sacrified by an air injection in the edge auriculaers vein. The two vagus nerves, drawn as soon as possible, were placed in a bath of Locke solution having the following composition: 154 mM NaCl; 5.5 mM KCl; 2.2 mM CaCl2; 5 mM glucose; 8 mM TRIS, the pH being adjusted at 7.6 by addition of HCl. Nerves were stripped of their epineurium and transferred into a device described by Kosterlitz H. W. et al., [J. Physiol., 183, IP-3P, (1966)] consisting of four compartments separated by means of 3 elastic membranes having a little hole through which the nerve passes. The glucose concentration perfusing a portion of the nerve was 315 mM. The overmaximal electric stimulation by a single shock at 10 seconds intervals elicited a potential visualized on a storage oscilloscope. In the potential the complexes due to the excitation of fibers A, B and C were distinguished. A serotonin solution applied to the nerve causes the dose-dependent fall of the potential for fibers C only. The non variation of the A-B complex when applying serotonin and the test compounds of formula I indicates on one hand the specific action of the substances for receptors relating to fibers C only (5-HT3 receptors) and on the other hand the absence of local-anaesthetic activity. Tests were performed at room temperature (24°-25° C.). The optimum maximum reduction of the potential of fibers C by serotonin resulted to be 44%. This reduction was adopted as maximum effect (100%). For each nerve a dose-response curve was constructed with cumulative doses of serotonin. After having washed serotonin and recovered the initial potential, the nerve was balanced with a fixed concentration of the compound of formula I for 60 minutes and successively the dose-response curve to serotonin was repeated, the compound of formula I being always present in the same concentration. After having applied a serotonin concentration sufficient to produce the highest effect, the preparation was washed and thereafter it was balanced again for 60 minutes with a solution of the same compound of formula I having a higher concentration. The procedure was then repeated. For each dose of the compound of formula I the test was repeated more than 5 times. The negative […] logarithm of the molar concentration of the compound of formula I which gives a 50% reduction of the effect of the agonist substance (pA2) was calculated. In table 7, the pA2 values of some compounds of formula I are reported.

[7] = target: T3, contracturing effect of acetylcholine (Cavia porcellus, UniProt H0W1Z3); assay: anticholinergic activity in vitro (contracturing effect of acetylcholine on isolated guinea pig small intestine); design: species or system Guinea pigs
T3 construct: Segments measuring 5-6 cm were drawn form the end portion of the small intestine; from tissue; host or cells: guinea pig terminal small intestine (ileum)

[8] = tested on: rat sciatic nerve; assay: local anaesthetic activity on sciatic nerve preparation in vitro; conditions: for pIC50: read-out: ED50 (C.L. 95%)
[9] = tested on: 5-HT1 receptors; assay: affinity for 5-HT1 receptors (3H serotonin binding), rat cortex membranes; conditions: 3H-serotonin 5 nM; rat frontal cortex membranes
[10] = tested on: guinea pig back; assay: local anaesthetic activity in the test of the guinea pig back in vivo (intracutaneous infiltration); conditions: for ED50 (C.L. 95%), 5 min. / ED50 (C.L. 95%), 15 min. / ED50 (C.L. 95%), 30 min.: guinea pig back, cutaneous anaesthesia, 0.25 ml; for ED50 (C.L. 95%), 5 min.: 5 min. after administration; for ED50 (C.L. 95%), 15 min.: 15 min. after administration; for ED50 (C.L. 95%), 30 min.: 30 min. after administration
Description: (b) Evaluation of the local anaesthetic activity in the test of the guinea pig back in vivo in comparison with lidocaine.
The local anaesthetic activity was evaluated by the method of intracutaneous infiltration in the guinea pig back as described by Bulbring E. and Wajda I. [(J. Pharmacol. Exp. Ther. 85, 78, (1945)].
Female guinea pigs weighin 400-500 g were treated intracutaneously in 4 points of their back.
At 5 minutes intervals, it was determined the reactivity of the animal to pain in each area by considering the number of responses to 6 pain stimulations.
Compounds of formula I, compound R and lidocaine, dissolved at different concentration in physiological solution adjusting the pH at 7 by addition of NaHCO3 were injected under the skin at the constant volume of 0.25 ml.
The distribution of the treatments in the 4 areas of the back was carried out according to the scheme of the Latin square. Experiments were carried out in blind.
As an example, the ED50 values for compound No. 8, compound R and lidocaine determined at 5, 15 and 30 minutes after the administration are reported in table 4.

[11] = tested on: reperfusion induced arrythmias in rat; assay: inhibition of reperfusion induced arrythmias in rat; assay type: in vivo; conditions: for % VF / % dead: 10 treated rats; for incidence dead / incidence VF: number of 10 treated rats
[12] = target: T4, 5-HT3 receptors (Rattus norvegicus, UniProt P35563); assay: anti-5-HT3 activity in vivo, inhibition of the Bezold-Jarisch effect; conditions: intravenous, read-out: ED50 to the antagonism of the heart rate fall (Bezold-Jarisch effect)
T4 construct: Male albino rats weighing 300-400 g anaesthetized with urethan; from tissue; host or cells: whole anaesthetized rat (endogenous receptor on cardiac vagal afferents)
T4 sequence (P35563 24-483): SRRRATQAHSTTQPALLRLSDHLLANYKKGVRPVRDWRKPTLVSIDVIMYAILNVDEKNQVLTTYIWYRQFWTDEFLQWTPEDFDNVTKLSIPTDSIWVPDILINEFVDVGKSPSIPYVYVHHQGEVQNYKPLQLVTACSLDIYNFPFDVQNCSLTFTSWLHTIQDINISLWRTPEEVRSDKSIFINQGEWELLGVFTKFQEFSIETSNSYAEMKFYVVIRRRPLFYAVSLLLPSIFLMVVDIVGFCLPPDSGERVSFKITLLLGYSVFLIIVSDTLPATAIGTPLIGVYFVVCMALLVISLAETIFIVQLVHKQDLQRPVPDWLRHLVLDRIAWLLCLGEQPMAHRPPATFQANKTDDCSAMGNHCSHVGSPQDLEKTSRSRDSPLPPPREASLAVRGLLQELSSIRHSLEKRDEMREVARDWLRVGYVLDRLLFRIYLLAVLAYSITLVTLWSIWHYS
Description: (a) Evaluation of the anti-5-HT3 activity in vivo by the method of the inhibition of the Bezold-Jarisch effect. The followed method was described by Fozard J. R. et al. [Nature, 316, 126-131, (1985)]. Male albino rats weighing 300-400 g anaesthetized with urethan (1.25-1.5 g/kg i.p.) were used. A tracheal cannula to allow respiration, one little catheter implanted into the jugular vein for administering serotonin and another into the right femoral vein for the intravenous administration of the compounds of formula I and of compound R were used. The bolus injection into the jugular vein of a serotonin solution caused an abrupt reduction of the heart rate quantified as 100% of the effect. The evaluation of the anti-5-HT3 activity was performed by calculating ED50 values (μg/kg) to the antagonism of the heart rate fall.

[13] = iv, 2 min, i.v., 2 minutes before norepinephrine, read-out: ED50 i.v.
[14] = po, 1 hour before norepinephrine, read-out: ED50 p.o.
[15] = 3 mg/kg per os, *** significance < 0.001

T3 sequence (H0W1Z3 1-590): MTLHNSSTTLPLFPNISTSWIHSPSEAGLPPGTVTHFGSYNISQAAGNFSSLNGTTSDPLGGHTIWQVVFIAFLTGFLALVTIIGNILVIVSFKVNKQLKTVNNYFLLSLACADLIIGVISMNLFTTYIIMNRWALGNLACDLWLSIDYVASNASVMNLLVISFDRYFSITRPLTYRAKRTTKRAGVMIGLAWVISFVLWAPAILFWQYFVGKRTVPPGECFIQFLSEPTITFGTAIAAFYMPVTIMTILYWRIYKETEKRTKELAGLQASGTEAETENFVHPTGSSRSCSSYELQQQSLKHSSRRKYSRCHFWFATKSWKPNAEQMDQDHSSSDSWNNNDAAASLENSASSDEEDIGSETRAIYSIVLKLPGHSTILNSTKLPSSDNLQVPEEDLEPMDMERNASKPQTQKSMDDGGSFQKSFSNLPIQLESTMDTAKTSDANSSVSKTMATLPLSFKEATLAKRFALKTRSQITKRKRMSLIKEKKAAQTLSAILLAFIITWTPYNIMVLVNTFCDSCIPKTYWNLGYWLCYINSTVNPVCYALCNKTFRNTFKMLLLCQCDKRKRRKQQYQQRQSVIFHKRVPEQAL
T1 sequence (P31389 whole entry): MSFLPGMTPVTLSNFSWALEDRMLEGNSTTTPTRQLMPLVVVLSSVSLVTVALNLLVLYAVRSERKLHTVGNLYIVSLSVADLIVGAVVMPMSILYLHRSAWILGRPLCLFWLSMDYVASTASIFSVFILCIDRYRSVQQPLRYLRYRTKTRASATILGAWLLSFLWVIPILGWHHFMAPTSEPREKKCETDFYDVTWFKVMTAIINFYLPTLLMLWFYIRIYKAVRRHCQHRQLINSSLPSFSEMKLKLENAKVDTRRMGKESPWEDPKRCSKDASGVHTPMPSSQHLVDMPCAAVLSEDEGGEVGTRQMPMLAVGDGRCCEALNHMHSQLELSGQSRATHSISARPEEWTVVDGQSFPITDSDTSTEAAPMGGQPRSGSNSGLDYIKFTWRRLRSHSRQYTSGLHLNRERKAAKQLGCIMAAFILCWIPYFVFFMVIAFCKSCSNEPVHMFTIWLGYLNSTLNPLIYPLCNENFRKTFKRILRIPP
Chain of 5-HT2 receptors (P14842 whole entry): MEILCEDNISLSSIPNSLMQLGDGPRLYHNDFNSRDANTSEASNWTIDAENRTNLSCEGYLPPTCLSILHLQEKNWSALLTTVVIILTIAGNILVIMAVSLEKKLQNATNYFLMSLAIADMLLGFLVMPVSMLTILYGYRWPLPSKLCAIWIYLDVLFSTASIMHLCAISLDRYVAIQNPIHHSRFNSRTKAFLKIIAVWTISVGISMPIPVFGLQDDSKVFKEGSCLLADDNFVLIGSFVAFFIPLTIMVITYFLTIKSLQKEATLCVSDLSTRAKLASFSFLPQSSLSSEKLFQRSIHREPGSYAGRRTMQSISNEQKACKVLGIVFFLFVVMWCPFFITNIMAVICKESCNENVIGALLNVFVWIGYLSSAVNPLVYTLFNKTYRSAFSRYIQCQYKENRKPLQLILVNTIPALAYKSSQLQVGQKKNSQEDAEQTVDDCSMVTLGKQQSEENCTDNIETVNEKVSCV

Row | Structure (SMILES) | Displacement activity at receptors of Ca++ [1] | ED50 [3, 13] [mg/kg] | ED50 [3, 14] [mg/kg] | Displacement activity at benzodiazepine receptors [4] | Kb [7] [µM] | Affinity (IC50) to 5-HT1 receptors [9] | ED50 (C.L. 95%), 5 min. [10] | ED50 (C.L. 95%), 15 min. [10] | ED50 (C.L. 95%), 30 min. [10] | % VF ([11]; 3 mg/kg per os) [%] | % dead ([11]; 3 mg/kg per os) [%] | incidence dead ([11]; 3 mg/kg per os) | incidence VF [11, 15] | also measured
1 | Cc1cc(C(=O)O[C@H]2C[C@H]3CC[C@@H](C2)N3C)no1 [Compound 8, 5-methylisoxazole-3-carboxylic acid 3-(endo-8-methyl-8-azabicyclo[3,2,1]octyl) ester hydrochloride] | inactive | 0.125 | 0.35 | inactive | 6.31 | inactive | 28.4 (25.5-31.8) mM | 32.8 (30.5-35.2) mM | 41.2 (38.8-43.7) mM | 0 | 0 | 0 | 0 | Kb ([2]; vs histamine, guinea pig small intestine, 37° C., test compounds 10^-5 M, read-out: Antihistaminic activity (pA2) (converted)): 6.31 µM; activity in norepinephrine-induced arrythmia (in words) ([3]; intravenously or per os): much more active than the compound R; Affinity (IC50) to 5-HT2 receptors ([5]; 3H-spiroperidol […]): inactive; Kb [6]: 0.000631 µM; pIC50 ([8]; rat, sciatic nerve, 8 min): < 1.82; local anaesthetic activity, guinea pig back (in words) ([10]; guinea pig, in vivo): undoubtedly less active as local anaesthetic than compound R and lidocaine; % VF ([11]; 1 mg/kg per os): 20%; % dead ([11]; 1 mg/kg per os): 10%; incidence dead ([11]; 1 mg/kg per os): 1; incidence VF ([11]; 1 mg/kg per os, ** significance < 0.02): 2; antiarrythmic activity, reperfusion induced arrythmias (in words) ([11]; per os): active in the test of reperfusion-induced arrythmias
2 | CN1[C@@H]2CC[C@H]1C[C@@H](OC(=O)c1c[nH]c3ccccc13)C2 [R, 3-endo-tropanyl indol-3-yl carboxylate, reference compound] | inactive | 0.65 | 4 | 1,000 | 15.8 | inactive | 2.5 (2.1-2.9) mM | 3.3 (3.0-3.7) mM | 5.7 (5.2-6.2) mM | 70 | 30 | 3 | 7 | Kb [2]: 3.16 µM; antihistaminic activity (in words) [2]: practically free of anticholinergic and antihistaminic activity; pIC50 ([5]; 3H-spiroperidol 0.25 nM): 4.60; anticholinergic activity (in words) [7]: practically free of anticholinergic and antihistaminic activity; local anaesthetic activity (in words) [8]: good activity; also recorded: comparable with that of lidocaine; pIC50 ([8]; rat sciatic nerve in vitro, 8 minutes contact): 2.89; ED50 [12]: 0.006 mg/kg
